Assay results: patent US20210069173A1, “PREPARATION OF (-)-COCAINE HYDROCHLORIDE” (Cody Laboratories, Inc., priority 2018, published 2021)
Counter-ions that a name gives are not always drawn.

Tests used:
[1] = system: mice; details: cited from earlier work
[2] = cited from earlier work
[3] = Distribution, metabolism and excretion of cocaine
[4] = system: mucous membranes; experiment: Topical anesthesia of mucous membranes by pledget administration; format: in vivo, human; details: applied to mucous membranes by pledget, depends on concentration, vascularity
Protocol: When applied to mucous membranes by pledget administration, topical anesthesia develops rapidly and persists for 30 minutes or longer depending on the concentration of cocaine HCl solution used, the dose, and on the vascularity of the tissue.

[5] = system: experimental animals; details: cited from earlier work

In the case of COC(=O)[C@H]1[C@@H](OC(=O)c2ccccc2)C[C@@H]2CC[C@H]1N2C [Cocaine, methyl (1R,2R,3S,5S)-3-(benzoyloxy)-8-methyl-8-azabicyclo[3.2.1]octane-2-carboxylate], the “potency in producing increases in locomotor activity” value ([1]; cocaine versus cocaethylene) is given as “more potent than cocaethylene”, the “metabolism by hydrolysis to ecgonine” value ([2]; by carboxylesterase-2) is given as “minimally metabolized” and the “fraction metabolized by hydrolysis to benzoylecgonine” value ([2]; by hepatic carboxylesterase-1) is given as 40-45%. The “fraction metabolized by hydrolysis to ecgonine methyl ester” value ([2]; by plasma butyrylcholinesterase and hepatic carboxylesterase-2) was 40-45%, the “fraction N-demethylated to norcocaine” value ([2]; by the CYP3A4 enzyme system) was 5-10% and the volume of distribution ([2]; in vivo) was “approximately 2 L/kg”. For the same molecule, the “fraction eliminated unchanged in the urine” value ([3]; human, urine) was < 5%.

In the case of COC(=O)[C@H]1[C@@H](OC(=O)c2ccccc2)C[C@@H]2CC[C@H]1N2C [cocaine HCl, methyl (1R,2R,3S,5S)-3-(benzoyloxy)-8-methyl-8-azabicyclo[3.2.1]octane-2-carboxylate hydrochloride], the “persistence of topical anesthesia” value [4] is reported as ≥ 30 min.

For CCOC(=O)[C@H]1[C@@H](OC(=O)c2ccccc2)C[C@@H]2CC[C@H]1N2C [ethyl cocaine, ethyl (1R,2R,3S,5S)-3-(benzoyloxy)-8-methyl-8-azabicyclo[3.2.1]octane-2-carboxylate], the “potency in producing convulsions” value ([1]; cocaine versus cocaethylene) is given as “equipotent”, the “potency in producing lethality” value ([1]; ethyl cocaine versus cocaine) is given as “more potent than cocaine” and the “elimination half-life (comparative)” value [5] is given as “longer elimination half-life”. The “volume of distribution (comparative)” value [5] was “larger volume of distribution” and the toxicity and arrhythmogenicity ([5]; versus cocaine or ethanol alone) was “more toxic and arrhythmogenic than either substance alone”.

In the case of COC(=O)[C@H]1[C@@H](OC(=O)c2ccccc2)C[C@@H]2CC[C@H]1N2 [norcocaine], the “total systemic exposure relative to cocaine” value ([3]; in vivo) is reported as “less than one percent”.
